Test results: ChEMBL document CHEMBL4190377, “Design of Aminopeptidase N Inhibitors as Anti-cancer Agents” (J Med Chem, 2018)
≈ marks a conversion by molar mass, not a printed value.

Columns and labels:
Aminopeptidase N [1] = molecular target: T1, Aminopeptidase N (Sus scrofa, UniProt P15145); experiment: Inhibition of pig APN
T1 sequence (P15145 whole entry): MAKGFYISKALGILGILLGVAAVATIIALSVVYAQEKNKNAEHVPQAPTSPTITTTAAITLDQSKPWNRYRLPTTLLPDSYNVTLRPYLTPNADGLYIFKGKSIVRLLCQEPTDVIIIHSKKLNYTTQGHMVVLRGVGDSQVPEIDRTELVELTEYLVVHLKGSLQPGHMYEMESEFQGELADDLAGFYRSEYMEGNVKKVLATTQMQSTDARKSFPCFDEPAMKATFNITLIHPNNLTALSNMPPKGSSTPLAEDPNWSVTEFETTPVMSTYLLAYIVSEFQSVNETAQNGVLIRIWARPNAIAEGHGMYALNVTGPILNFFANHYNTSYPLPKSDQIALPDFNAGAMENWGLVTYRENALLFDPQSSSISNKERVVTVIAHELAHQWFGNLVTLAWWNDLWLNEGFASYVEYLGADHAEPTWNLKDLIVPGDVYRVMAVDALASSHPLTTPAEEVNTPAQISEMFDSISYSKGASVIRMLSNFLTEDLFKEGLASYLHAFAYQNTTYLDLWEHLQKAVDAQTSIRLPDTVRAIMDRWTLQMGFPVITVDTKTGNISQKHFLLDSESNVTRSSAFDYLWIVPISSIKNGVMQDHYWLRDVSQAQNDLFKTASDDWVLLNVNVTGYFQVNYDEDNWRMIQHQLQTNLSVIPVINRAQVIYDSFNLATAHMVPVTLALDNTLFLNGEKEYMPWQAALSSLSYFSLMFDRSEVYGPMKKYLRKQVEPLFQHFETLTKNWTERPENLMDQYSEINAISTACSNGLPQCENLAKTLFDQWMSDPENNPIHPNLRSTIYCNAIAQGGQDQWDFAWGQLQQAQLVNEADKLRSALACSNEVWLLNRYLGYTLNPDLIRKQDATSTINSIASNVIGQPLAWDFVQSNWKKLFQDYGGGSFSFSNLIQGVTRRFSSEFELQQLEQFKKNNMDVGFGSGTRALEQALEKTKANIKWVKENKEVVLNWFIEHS

[2] = Solubility in PBS; assay type: physicochemical
Aminopeptidase N [3] = molecular target: T1, Aminopeptidase N; experiment: Inhibition of APN in porcine kidney microsomes using L-leucine-p-nitroanilide as substrate preincubated for 30 mins followed by substrate addition by UV-visible spectrophotometric method
[4] = Antiproliferative activity against human ES2 cells over-expressing APN after 48 hrs by MTT assay; assay type: functional, cell-based; conditions: ES-2, 48 h
A549 = experiment: Antiproliferative activity against human A549 cells over-expressing APN after 48 hrs by MTT assay; assay type: functional, cell-based; conditions: A549, 48 h
MDA-MB-231 = experiment: Antiproliferative activity against human MDA-MB-231 cells after 48 hrs by MTT assay; assay type: functional, cell-based; conditions: MDA-MB-231, 48 h
HL-60 [5] = experiment: Antiproliferative activity against human HL60 cells after 72 hrs by MTT assay; assay type: functional, cell-based; conditions: HL-60, 72 h
Aminopeptidase N [6] = molecular target: T2, Aminopeptidase N (Homo sapiens, UniProt P15144)
Description: Inhibition of APN (unknown origin)

Aminopeptidase N [7] = molecular target: T1, Aminopeptidase N; experiment: Inhibition of APN in porcine kidney using Ala-p-NA as substrate
Glutamyl aminopeptidase [8] = molecular target: T3, Glutamyl aminopeptidase (Homo sapiens, UniProt Q07075); experiment: Inhibition of APA (unknown origin) using GluNA as substrate
[9] = molecular target: T4, Leukotriene A-4 hydrolase (Homo sapiens, UniProt P09960); experiment: Inhibition of full-length recombinant C-terminal FLAG-tagged human leukotriene A4 hydrolase expressed in baculovirus-infected insect cells using Arg-AMC as substrate after 1 hr by fluorescence assay
T4 sequence (P09960 whole entry): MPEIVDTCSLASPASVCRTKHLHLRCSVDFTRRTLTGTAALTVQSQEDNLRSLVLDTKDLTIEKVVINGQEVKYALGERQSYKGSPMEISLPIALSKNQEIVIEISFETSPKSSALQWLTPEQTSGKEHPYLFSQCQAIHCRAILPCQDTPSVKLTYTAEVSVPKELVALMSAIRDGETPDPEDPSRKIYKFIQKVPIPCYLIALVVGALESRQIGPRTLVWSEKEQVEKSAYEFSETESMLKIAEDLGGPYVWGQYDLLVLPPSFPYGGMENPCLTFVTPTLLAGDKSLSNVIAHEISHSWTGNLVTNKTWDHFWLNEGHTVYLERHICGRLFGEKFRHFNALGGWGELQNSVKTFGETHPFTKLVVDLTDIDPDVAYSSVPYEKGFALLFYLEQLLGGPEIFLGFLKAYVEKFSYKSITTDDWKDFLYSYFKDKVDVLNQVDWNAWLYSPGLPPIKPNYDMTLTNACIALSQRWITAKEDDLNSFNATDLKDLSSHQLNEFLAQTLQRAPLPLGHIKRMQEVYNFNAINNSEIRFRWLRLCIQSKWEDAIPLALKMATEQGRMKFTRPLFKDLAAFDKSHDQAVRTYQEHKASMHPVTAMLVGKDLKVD

Cytosol aminopeptidase = molecular target: T5, Cytosol aminopeptidase (Sus scrofa, UniProt P28839); experiment: Inhibition of porcine kidney leucine aminopeptidase using LGG as substrate after 90 mins
T5 sequence (P28839 whole entry): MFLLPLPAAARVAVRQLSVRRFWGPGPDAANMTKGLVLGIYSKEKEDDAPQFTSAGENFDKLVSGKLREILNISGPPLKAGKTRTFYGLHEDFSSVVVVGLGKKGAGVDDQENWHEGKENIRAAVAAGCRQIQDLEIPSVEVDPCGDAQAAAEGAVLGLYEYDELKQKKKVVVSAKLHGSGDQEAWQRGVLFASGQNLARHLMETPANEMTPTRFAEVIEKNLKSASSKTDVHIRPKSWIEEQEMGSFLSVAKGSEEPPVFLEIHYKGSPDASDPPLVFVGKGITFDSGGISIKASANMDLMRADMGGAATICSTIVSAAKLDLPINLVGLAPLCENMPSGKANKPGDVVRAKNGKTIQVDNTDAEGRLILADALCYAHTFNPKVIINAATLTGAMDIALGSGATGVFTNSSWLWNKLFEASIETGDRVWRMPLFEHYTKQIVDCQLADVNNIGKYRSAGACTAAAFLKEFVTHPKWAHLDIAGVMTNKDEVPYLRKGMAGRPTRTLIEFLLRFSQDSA

Aminopeptidase N [10] = molecular target: T2, Aminopeptidase N; experiment: Competitive inhibition of aminopeptidase-M (unknown origin)
Glutamyl aminopeptidase [11] = molecular target: T3, Glutamyl aminopeptidase; experiment: Inhibition of APA (unknown origin) using GlubetaNA as substrate after 30 mins
Aminopeptidase B = molecular target: T6, Aminopeptidase B (Rattus norvegicus, UniProt O09175); experiment: Inhibition of APB in rat testis using ArgbetaNA as substrate
T6 sequence (O09175 whole entry): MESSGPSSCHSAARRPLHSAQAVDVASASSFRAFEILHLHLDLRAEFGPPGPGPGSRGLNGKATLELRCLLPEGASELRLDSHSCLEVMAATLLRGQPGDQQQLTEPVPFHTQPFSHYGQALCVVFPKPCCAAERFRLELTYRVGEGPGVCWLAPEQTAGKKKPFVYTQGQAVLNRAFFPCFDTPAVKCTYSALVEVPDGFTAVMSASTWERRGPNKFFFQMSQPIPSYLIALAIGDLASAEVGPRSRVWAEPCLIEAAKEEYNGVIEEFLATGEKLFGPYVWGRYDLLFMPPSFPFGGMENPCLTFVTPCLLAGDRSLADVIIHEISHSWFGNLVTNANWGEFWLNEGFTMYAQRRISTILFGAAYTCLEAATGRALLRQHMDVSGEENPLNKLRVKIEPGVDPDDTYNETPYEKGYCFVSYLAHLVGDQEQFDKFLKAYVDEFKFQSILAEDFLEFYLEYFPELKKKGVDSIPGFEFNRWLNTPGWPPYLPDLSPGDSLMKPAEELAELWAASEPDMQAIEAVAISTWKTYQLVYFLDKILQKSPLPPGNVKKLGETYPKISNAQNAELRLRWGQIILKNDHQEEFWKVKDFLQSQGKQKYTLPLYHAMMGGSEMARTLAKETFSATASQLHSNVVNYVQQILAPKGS

Mus musculus = experiment: Increase in plasma vasopressin release in mouse at 100 ug administered as single dose by RIA; assay type: functional
Aminopeptidase N [12] = molecular target: T1, Aminopeptidase N; experiment: Inhibition of APN in porcine kidney microsomes using L-leucine-p-nitroanilide as substrate preincubated for 30 mins followed by substrate addition measured after 15 mins by UV-visible spectrophotometric method
[13] = molecular target: T7, Cytosol aminopeptidase (Sus scrofa) (UniProt P28839); experiment: Potency index, ratio of bestatin IC50 to compound IC50 for porcine kidney leucine aminopeptidase
T7 sequence (whole entry): T5 sequence (P28839 whole entry)

[14] = Selectivity ratio of IC50 for APN (unknown origin) to IC50 for porcine kidney leucine aminopeptidase
Leucine aminopeptidase = molecular target: T8, Leucine aminopeptidase (Sus scrofa, UniProt Q29571); experiment: Competitive inhibition of LAP in porcine kidney microsomes
T8 sequence (Q29571 whole entry): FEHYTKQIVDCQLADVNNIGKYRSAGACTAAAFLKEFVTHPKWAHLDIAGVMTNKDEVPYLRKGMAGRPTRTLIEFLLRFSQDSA

[15] = molecular target: 72 kDa type IV collagenase (Homo sapiens, UniProt P08253); experiment: Inhibition of recombinant human MMP2 expressed in Escherichia coli preincubated for 30 mins followed by succinylated gelatin substrate addition measured after 60 mins
HL-60 [16] = experiment: Antiproliferative activity against human HL60 cells after 48 hrs by MTT assay; assay type: functional, cell-based; conditions: HL-60, 48 h
SK-OV-3 = experiment: Antiproliferative activity against human SKOV3 cells after 48 hrs by MTT assay; assay type: functional, cell-based; conditions: SK-OV-3, 48 h
Aminopeptidase N [17] = molecular target: T1, Aminopeptidase N; experiment: Inhibition of APN in porcine kidney using Ala-betaNA as substrate preincubated for 10 mins followed by substrate addition measured after 30 mins by fluorescence spectrofluorometric method

T2 sequence (P15144 whole entry): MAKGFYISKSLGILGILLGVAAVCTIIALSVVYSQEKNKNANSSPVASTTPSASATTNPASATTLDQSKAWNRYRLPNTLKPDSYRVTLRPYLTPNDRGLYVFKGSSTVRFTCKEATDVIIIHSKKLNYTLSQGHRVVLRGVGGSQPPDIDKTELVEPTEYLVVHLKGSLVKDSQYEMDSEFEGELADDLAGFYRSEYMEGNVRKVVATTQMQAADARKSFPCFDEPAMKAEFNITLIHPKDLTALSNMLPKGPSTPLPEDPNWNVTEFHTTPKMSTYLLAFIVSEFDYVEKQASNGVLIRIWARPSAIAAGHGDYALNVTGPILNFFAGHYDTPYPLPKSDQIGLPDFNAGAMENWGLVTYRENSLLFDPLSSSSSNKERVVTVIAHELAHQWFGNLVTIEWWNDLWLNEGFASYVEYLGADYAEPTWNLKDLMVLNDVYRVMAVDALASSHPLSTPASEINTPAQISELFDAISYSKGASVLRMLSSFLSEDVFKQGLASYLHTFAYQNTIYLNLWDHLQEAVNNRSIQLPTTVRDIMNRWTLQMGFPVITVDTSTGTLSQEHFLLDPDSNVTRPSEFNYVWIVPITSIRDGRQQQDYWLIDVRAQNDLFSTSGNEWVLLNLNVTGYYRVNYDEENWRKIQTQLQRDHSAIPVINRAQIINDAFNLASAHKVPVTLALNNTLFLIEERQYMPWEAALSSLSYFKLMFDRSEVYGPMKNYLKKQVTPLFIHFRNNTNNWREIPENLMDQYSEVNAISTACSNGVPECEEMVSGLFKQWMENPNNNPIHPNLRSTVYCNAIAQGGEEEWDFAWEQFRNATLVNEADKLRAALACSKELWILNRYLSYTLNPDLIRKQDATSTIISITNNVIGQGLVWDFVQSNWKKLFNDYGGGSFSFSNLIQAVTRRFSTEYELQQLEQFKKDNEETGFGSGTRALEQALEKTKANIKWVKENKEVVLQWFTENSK
T3 sequence (Q07075 whole entry): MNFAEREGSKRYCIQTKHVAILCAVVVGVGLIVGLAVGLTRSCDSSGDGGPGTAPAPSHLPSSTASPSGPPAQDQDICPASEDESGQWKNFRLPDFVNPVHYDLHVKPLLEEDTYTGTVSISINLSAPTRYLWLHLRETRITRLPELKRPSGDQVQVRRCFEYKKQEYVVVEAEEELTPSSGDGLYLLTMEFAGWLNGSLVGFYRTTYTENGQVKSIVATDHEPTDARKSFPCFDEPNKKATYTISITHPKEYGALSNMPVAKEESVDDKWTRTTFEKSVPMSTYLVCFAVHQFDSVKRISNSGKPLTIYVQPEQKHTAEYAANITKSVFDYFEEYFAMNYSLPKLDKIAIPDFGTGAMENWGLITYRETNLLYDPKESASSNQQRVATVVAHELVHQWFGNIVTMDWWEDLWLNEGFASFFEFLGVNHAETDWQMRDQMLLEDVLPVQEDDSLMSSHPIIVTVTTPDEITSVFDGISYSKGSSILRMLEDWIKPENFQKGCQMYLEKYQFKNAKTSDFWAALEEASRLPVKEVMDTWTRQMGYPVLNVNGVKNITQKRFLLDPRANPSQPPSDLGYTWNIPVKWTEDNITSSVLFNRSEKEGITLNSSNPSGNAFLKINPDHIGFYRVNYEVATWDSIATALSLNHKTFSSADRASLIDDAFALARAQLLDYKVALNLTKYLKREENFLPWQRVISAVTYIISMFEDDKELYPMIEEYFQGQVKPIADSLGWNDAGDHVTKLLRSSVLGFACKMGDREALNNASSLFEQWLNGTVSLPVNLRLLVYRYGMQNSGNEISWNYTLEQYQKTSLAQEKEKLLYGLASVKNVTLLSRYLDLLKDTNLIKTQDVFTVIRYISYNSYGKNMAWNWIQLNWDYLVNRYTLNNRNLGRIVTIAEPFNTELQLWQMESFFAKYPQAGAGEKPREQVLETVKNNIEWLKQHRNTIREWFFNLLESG
72 kDa type IV collagenase, sequence (P08253 whole entry): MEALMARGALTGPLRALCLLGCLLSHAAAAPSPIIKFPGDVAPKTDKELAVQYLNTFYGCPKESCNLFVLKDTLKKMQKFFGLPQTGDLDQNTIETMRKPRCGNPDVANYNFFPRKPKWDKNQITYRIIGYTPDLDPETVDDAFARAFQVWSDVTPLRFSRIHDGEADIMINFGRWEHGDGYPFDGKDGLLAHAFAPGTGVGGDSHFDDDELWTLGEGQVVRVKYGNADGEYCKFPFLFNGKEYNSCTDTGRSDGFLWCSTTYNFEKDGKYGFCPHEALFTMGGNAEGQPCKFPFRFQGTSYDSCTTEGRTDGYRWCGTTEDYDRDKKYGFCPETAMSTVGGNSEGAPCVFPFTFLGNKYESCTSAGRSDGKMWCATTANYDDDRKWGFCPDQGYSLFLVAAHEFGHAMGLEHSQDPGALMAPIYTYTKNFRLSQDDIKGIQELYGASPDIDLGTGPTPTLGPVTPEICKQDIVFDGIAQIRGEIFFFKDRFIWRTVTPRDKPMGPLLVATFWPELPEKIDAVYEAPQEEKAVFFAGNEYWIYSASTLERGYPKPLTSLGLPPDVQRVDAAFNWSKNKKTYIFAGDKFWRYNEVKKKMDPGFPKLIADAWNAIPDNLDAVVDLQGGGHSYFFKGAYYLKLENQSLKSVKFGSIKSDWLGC

## C(=C1/c2ccccc2-c2c1ccc1ccccc21)/c1cc2c3c(cccc3c1)-c1ccccc1-2
Aminopeptidase N [1]
  Ki: 1630 nM

## CC(C)CC(NC(=O)C(O)C(N)Cc1ccccc1)C(=O)NC(CO)C(=O)NCc1ccccc1 (stereo not drawn)
[2]
  solubility: 85.2 mM (≈ 41.3 mg/mL)
Aminopeptidase N [3]
  IC50: 7200 nM
[4]
  IC50: 12600 nM
A549
  IC50: 36000 nM
MDA-MB-231
  IC50: 260000 nM

## Cc1ccc(NC(=O)CN2C(=O)CC[C@H](NC(=O)C(N)Cc3ccccc3)C2=O)c(C)c1 (stereo partly drawn)
Aminopeptidase N [3]
  IC50: 5000 nM
HL-60 [5]
  IC50: 1970 nM

## CC(C)C[C@H](NC(=O)[C@@H](O)[C@H](N)Cc1ccccc1)C(=O)O [UBENIMEX]
[2]
  solubility: 35.7 mM (≈ 11 mg/mL)

## CC(N)B1OC(C)(C)C(C)(C)O1 (stereo not drawn)
Aminopeptidase N [6]
  IC50: 40 nM

## Cc1ccc(C(=O)NN/C(=N/S(=O)(=O)c2ccc(-n3nc(C(F)(F)F)cc3-c3cccs3)cc2)N2CCCC2)cc1
Aminopeptidase N [1]
  Ki: 1950 nM

## C[C@@](Cc1ccccc1)(NC(=O)[C@H](Cc1ccccc1)CP(=O)(O)C(N)Cc1ccccc1)C(=O)O (stereo partly drawn)
Aminopeptidase N [7]
  Ki: 1.5 nM
Glutamyl aminopeptidase [8]
  Ki: 40000 nM

## CC(C)C[C@H](C(=O)N[C@H](C(=O)O)c1ccccc1)[C@H](O)C(=O)NO
[9]
  IC50: 8 nM
Cytosol aminopeptidase
  IC50: 30 nM

## CCCCC[C@H](CC(=O)NO)C(=O)N[C@H](C(=O)N1CCC[C@H]1CO)C(C)C [ACTINONIN]
Aminopeptidase N [10]
  IC50: 400 nM
  Ki: 170 nM

## CC(C)CC(N)B1OC(C)(C)C(C)(C)O1 (stereo not drawn)
Aminopeptidase N [6]
  IC50: 25 nM

## N#Cc1cc(Cc2ccc3c(ccc4ccccc43)c2C#N)cc2c1ccc1ccccc12
Aminopeptidase N [1]
  Ki: 2900 nM

## CSCCC(N)CS (stereo not drawn)
Glutamyl aminopeptidase [11]
  Ki: 17200 nM
Aminopeptidase B
  Ki: 1000 nM
Mus musculus
  Activity: >220%

## CC(C)C[C@@H](NC(=O)[C@H](Cc1ccc(O)cc1)NC(=O)[C@@H](O)CN)C(=O)O
Aminopeptidase N [12]
  IC50: 2510 nM

## NC1COc2ccccc2CC1=O (stereo not drawn)
Aminopeptidase N [1]
  Ki: 1000 nM

## CC(C)C[C@H](C(=O)N[C@H](C(=O)OC1CCCC1)c1ccccc1)[C@H](O)C(=O)NO
Cytosol aminopeptidase
  IC50: 100 nM
[13]
  Ratio IC50: 300
[14]
  Ratio IC50: 2
Aminopeptidase N [6]
  IC50: 220 nM

## CC(C)C[C@@H](N)CS
Leucine aminopeptidase
  Ki: 22 nM

## CC(C)C[C@@H](NC(=O)[C@H](Cc1ccccc1)NC(=O)[C@@H](O)CN)C(=O)O
Aminopeptidase N [12]
  IC50: 12200 nM
[15]
  IC50: 203000 nM
HL-60 [16]
  IC50: 170 nM
SK-OV-3
  IC50: 380 nM

## CC1(C)OB(C(N)Cc2ccccc2)OC1(C)C (stereo not drawn)
Aminopeptidase N [6]
  IC50: 20 nM

## CC(N)P(=O)(O)C[C@@H](Cc1ccccc1)C(=O)N[C@@](C)(Cc1ccccc1)C(=O)O (stereo partly drawn)
Aminopeptidase N [7]
  Ki: 0.6 nM
Glutamyl aminopeptidase [8]
  Ki: 130 nM

## CC[C@H](C)[C@H](NC(=O)C(S)C(N)CCC(=O)O)C(=O)N[C@@H](CC(=O)O)C(=O)O (stereo partly drawn)
Glutamyl aminopeptidase [11]
  Ki: 13 nM
Aminopeptidase N [17]
  Ki: 120 nM
